Measurements published in patent US12428415B2, “Matriptase 2 inhibitors and uses thereof” (Disc Medicine, Inc., priority 2018, dated 2025).
Where two headings read alike, the source gives them in different places.

Target: T1, Human Recombinant Matriptase 2 (Homo sapiens, UniProt Q8IU80)
T1 construct: purchased Enzo Life Sciences (an in-house preparation was also used) ALX-201-752-1
T1 sequence (Q8IU80 1-811): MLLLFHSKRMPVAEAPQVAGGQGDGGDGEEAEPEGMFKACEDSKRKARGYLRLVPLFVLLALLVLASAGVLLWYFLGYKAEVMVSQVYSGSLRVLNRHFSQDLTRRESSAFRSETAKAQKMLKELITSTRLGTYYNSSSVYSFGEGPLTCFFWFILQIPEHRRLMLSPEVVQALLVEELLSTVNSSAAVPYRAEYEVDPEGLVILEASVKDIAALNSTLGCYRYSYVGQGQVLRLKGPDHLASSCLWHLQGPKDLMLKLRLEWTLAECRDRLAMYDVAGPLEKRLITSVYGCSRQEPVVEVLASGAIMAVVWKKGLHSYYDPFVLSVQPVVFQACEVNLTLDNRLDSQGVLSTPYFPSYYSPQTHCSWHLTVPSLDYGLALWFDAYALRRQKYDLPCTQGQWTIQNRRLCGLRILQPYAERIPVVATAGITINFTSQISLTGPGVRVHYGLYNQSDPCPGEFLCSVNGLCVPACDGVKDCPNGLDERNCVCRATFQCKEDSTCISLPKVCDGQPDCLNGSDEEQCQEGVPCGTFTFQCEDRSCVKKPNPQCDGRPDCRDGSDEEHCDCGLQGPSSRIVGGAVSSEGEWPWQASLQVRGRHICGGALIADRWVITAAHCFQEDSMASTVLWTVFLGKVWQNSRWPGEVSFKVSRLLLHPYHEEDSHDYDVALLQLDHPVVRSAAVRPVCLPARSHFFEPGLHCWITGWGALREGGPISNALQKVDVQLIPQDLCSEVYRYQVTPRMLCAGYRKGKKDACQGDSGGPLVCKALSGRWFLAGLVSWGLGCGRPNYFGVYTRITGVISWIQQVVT
Assay: Matriptase 2 fluorescence based inhibition assay, Method A (100 mM TRIS pH 9, 1 mg/mL BSA)
Format: biochemical
Details: read-out: Mar-2 % inhibition at 1 uM
Method: Test compounds were evaluated for their potential to inhibit Human Recombinant Matriptase 2 (in-house and commercial protein from Enzo Life Sciences—cat log -ALX-201-752-1) using fluorescence based assay. The concentration of Recombinant Matriptase 2 and the substrate used in the assay was: 7 nM (commercial) and 15 nM (Inhouse Matriptase 2) and 100 μM (Boc-Gln-Ala-Arg-7-amido-4-methyl coumarin hydrobromide—Cat log: B4153-Sigma) respectively. The assay buffer used was 100 mM TRIS pH 9, 1 mg/mL BSA. The assay was performed using 384 well black flat bottom plate from grenier (Cat log: 781076) at 25° C. The enzyme and compound was preincubated for 30 mins, plate was read 60 mins after substrate addition at wavelength Ex: 360/Em: 480 nm. The final assay volume was 20 μl. Stock solution of compounds were initially prepared in DMSO and appropriate dilutions were made for screening and IC50 determination (final DMSO conc in the assay was 1%). All the measurements were carried out using the Spectramax M5, Molecular devices. The compounds were screened at 1 and 10 μM concentration and IC50 was determined for the interested compounds.
To determine IC50 values, dose response curves were generated by plotting percentage inhibition as a function of inhibitor concentration and the data was fitted to sigmoidal non-linear regression equation (variable slope) using Graph Pad prism software V7.

Compound | inhibition at 1 µM (at 1 uM, Assay Used = A) [%] | inhibition at 1 µM (1 uM, Assay Used A) [%]
N=C(N)c1ccc2cc(C(=O)N3CC[C@@H](F)C3)n(CCS(=O)(=O)c3ccccc3)c2c1 [Compound I-341] | 0 to 25 | 
N=C(N)c1ccc2c(Br)c(C(=O)N[C@H]3CC[C@H](N)CC3)n(Cc3ccc(Oc4ccccc4)cc3)c2c1 [Compound I-250] | 25 to 50 | 
N=C(N)c1ccc2cc(C(=O)NCc3cccc(CN)c3)n(CCc3ccccc3)c2c1 [Compound I-24] |  | 0 to 25
CNC(=O)c1ccc(Cn2c(C(=O)NCC3CCCCC3)cc3ccc(C(=N)N)cc32)cc1 [Compound I-215, 6-Carbamimidoyl-N-(cyclohexylmethyl)-1-(4-(methylcarbamoyl)benzyl)-1H-indole-2-carboxamide] | 0 to 25 | 
CCc1ccc(-c2cccc(CCn3c(C(=O)N[C@H]4CC[C@H](N)CC4)cc4ccc(C(=N)N)cc43)c2)cc1 [Compound I-35] |  | 25 to 50
N=C(N)c1ccc2cc(C(=O)N3CC[C@H](F)C3)n(Cc3ccc(C(N)=O)cc3)c2c1 [Compound I-330] | 0 to 25 | 
N=C(N)c1ccc2cc(C(=O)Nc3cccc(OCC4CC4)c3)n(Cc3ccc(C(N)=O)cc3)c2c1 [Compound I-121] |  | 0 to 25
N=C(N)c1ccc2cc(C(=O)Nc3ccc(F)cc3)n(CCS(=O)(=O)c3ccccc3)c2c1 [Compound I-42] |  | 0 to 25
N=C(N)c1ccc2cc(C(=O)Nc3cccc(N4CC[C@H](O)C4)c3)n(Cc3ccc(C(N)=O)cc3)c2c1 [Compound I-128] |  | 0 to 25
N=C(N)c1ccc2cc(C(=O)Nc3cccc(N4CCSCC4)c3)n(Cc3ccc(C(N)=O)cc3)c2c1 [Compound I-133] |  | 0 to 25
N=C(N)c1ccc2cc(C(=O)N3CCC(F)(F)C3)n(Cc3cccc(C(N)=O)c3)c2c1 [Compound I-324] | 0 to 25 | 
N=C(N)c1ccc2cc(C(=O)NCc3cccc(C(F)(F)F)c3)n(Cc3ccc(C(N)=O)cc3)c2c1 [Compound I-83] |  | 0 to 25
CC(C)[C@H](NC(=O)c1cc2ccc(C(=N)N)cc2n1Cc1ccc(C(N)=O)cc1)c1ccccc1 [Compound I-82] |  | 0 to 25
N=C(N)c1ccc2cc(C(=O)NC3Cc4ccccc4C3)n(Cc3ccc(C(N)=O)cc3)c2c1 [Compound I-201] | 0 to 25 | 
CCCCOC(=O)NC(=N)c1ccc2cc(C(=O)Nc3cccc(N4CCCC4)c3)n(Cc3ccc(C(N)=O)cc3)c2c1 [Compound I-160] |  | 0 to 25
N=C(N)NCCC1CCN(C(=O)c2cc3ccc(C(=N)N)cc3n2Cc2ccc(-c3ccccc3)cc2)CC1 [Compound I-361] | 0 to 25 | 
N=C(N)c1ccc2cc(C(=O)N3CCC(C(=O)NCCN)CC3)n(CCc3ccccc3)c2c1 [Compound I-357] | 0 to 25 | 
N=C(N)c1ccc2cc(C(=O)NC3CCNCC3)n(Cc3ccc(C(F)(F)F)cc3)c2c1 [Compound I-5] |  | 25 to 50
N=C(N)c1ccc2cc(C(=O)Nc3ccc(Cl)nc3)n(Cc3ccc(C(N)=O)cc3)c2c1 [Compound I-174] |  | 0 to 25
N=C(N)c1ccc2cc(C(=O)N3CCC(F)(F)C3)n(Cc3ccc(C(N)=O)cc3)c2c1 [Compound I-331] | 0 to 25 | 
C[C@H](NC(=O)c1cc2ccc(C(=N)N)cc2n1Cc1ccc(C(N)=O)cc1)c1ccc(F)cc1 [Compound I-63] |  | 0 to 25

Compound | inhibition at 1 µM (at 1 uM, Assay Used = A) [%] | inhibition at 1 µM (1 uM, Assay Used A) [%]
N=C(N)c1ccc2cc(C(=O)N3CCC(F)(F)C3)n(CCS(=O)(=O)c3ccccc3)c2c1 [Compound I-342] | 0 to 25 | 
CC(C)[C@@H](NC(=O)OC(C)(C)C)C(=O)O/N=C(\N)c1ccc2cc(C(=O)Nc3cccc(N4CCCC4)c3)n(Cc3ccc(C(N)=O)cc3)c2c1 [Compound I-157, (R)-tert-butyl (1-(((amino(1-(4-carbamoylbenzyl)-2-((3-(pyrrolidin-1-yl)phenyl)-carbamoyl)-1H-indol-6-yl)methylene)amino)oxy)-3-methyl-1-oxobutan-2-yl)carbamate] |  | 0 to 25
N=C(N)c1ccc2cc(C(=O)N[C@H]3CC[C@H](N)CC3)n(Cc3ccncc3)c2c1 [Compound I-19] |  | 25 to 50
CC(C)c1ccc(Cn2c(C(=O)NC3CCC(F)(F)CC3)cc3ccc(C(=N)N)cc32)cc1 [Compound I-15] |  | 0 to 25
C[C@@H](NC(=O)c1cc2ccc(C(=N)N)cc2n1Cc1ccc(C(N)=O)cc1)C1CCCCC1 [Compound I-194] |  | 0 to 25
COC(=O)NC(=N)c1ccc2cc(C(=O)Nc3ccc(N4CCCC4)cc3)n(Cc3ccc(C(N)=O)cc3)c2c1 [Compound I-118, Methyl ((1-(4-carbamoylbenzyl)-2-((4-(pyrrolidin-1-yl)phenyl)carbamoyl)-1H-indol-6-yl)(imino)methyl)carbamate] |  | 0 to 25
Cc1cncc(NC(=O)c2cc3ccc(C(=N)N)cc3n2Cc2ccc(C(N)=O)cc2)c1 [Compound I-175] |  | 25 to 50
NC(=O)c1ccc(Cn2c(C(=O)Nc3cccc(-c4ccccn4)c3)cc3ccc(C(N)=O)cc32)cc1 [Compound I-136, 1-(4-Carbamoylbenzyl)-N^2-(3-(pyridin-2-yl)phenyl)-1H-indole-2,6-dicarboxamide] |  | 0 to 25
N=C(N)c1ccc2c(Cl)c(C(=O)N3CCC(F)CC3)n(Cc3ccc(C(N)=O)cc3)c2c1 [Compound I-355] | 0 to 25 | 
CC1CCC(NC(=O)c2cc3ccc(C(=N)N)cc3n2Cc2ccc(C(=O)NC3CC3)cc2)CC1 (stereo not drawn) [Compound I-219, 6-Carbamimidoyl-1-(4-(cyclopropylcarbamoyl)benzyl)-N-(4-methylcyclohexyl)-1H-indole-2-carboxamide] | 0 to 25 | 
N=C(N)c1ccc2cc(C(=O)N3CCC(CCN)CC3)n(S(=O)(=O)Cc3ccccc3)c2c1 [Compound I-336] | 0 to 25 | 
N=C(N)c1ccc2cc(C(=O)Nc3cccc(F)c3)n(Cc3ccc(C(N)=O)cc3)c2c1 [Compound I-62] |  | 0 to 25
NCCC(=O)Nc1cccc(Cn2c(C(=O)N3CCC(CCN)CC3)cc3ccc(/C(N)=N/O)cc32)c1 [Compound I-381] | 0 to 25 | 
N=C(N)c1ccc2cc(C(=O)N[C@H]3CC[C@H](N)CC3)n(Cc3ccc(N)cc3)c2c1 [Compound I-261, 1-(4-Aminobenzyl)-N-((1r,4r)-4-aminocyclohexyl)-6-carbamimidoyl-1H-indole-2-carboxamide] | 25 to 50 | 
N=C(N)c1ccc2c(N)c(C(=O)N[C@H]3CC[C@H](N)CC3)n(CCS(=O)(=O)c3ccccc3)c2c1 [Compound I-56, 3-Amino-N-((1r,4r)-4-aminocyclohexyl)-6-carbamimidoyl-1-(2-(phenylsulfonyl)ethyl)-1H-indole-2-carboxamide] |  | 25 to 50
N=C(N)c1ccc2cc(C(=O)Nc3cccc4cnccc34)n(Cc3ccc(C(N)=O)cc3)c2c1 [Compound I-73] |  | 25 to 50
CN(C)C(=O)c1ccc(Cn2c(C(=O)N3CCC(F)(F)C3)cc3ccc(C(=N)N)cc32)cc1 [Compound I-386] | 0 to 25 | 
CC(C)c1ccc(Cn2c(C(=O)N[C@H]3CC=CCC3)cc3ccc(C(=N)N)cc32)cc1 [Compound I-14] |  | 0 to 25
N=C(N)c1ccc2cc(C(=O)N3CCC(F)(F)CC3)n(Cc3cccc(NC(=O)CCN)c3)c2c1 [Compound I-367] | 0 to 25 | 
N=C(N)c1ccc2cc(C(=O)Nc3cccc(N4CCCC4=O)c3)n(Cc3ccc(C(N)=O)cc3)c2c1 [Compound I-156] |  | 0 to 25
N=C(N)c1ccc2cc(C(=O)Nc3ccc(N4CCCC4)cc3)n(Cc3ccc(C(N)=O)cc3)c2c1 [Compound I-90] |  | 0 to 25
